In publication PMC3277506, “Extra-Renal Elimination of Uric Acid via Intestinal Efflux Transporter BCRP/ABCG2” (PLoS ONE, 2012):
“And” between values parts separate entries of the source, which are not always exact repeats. Equal values may be shown once.

How the values were obtained:
[1] = Intestinal secretion of endogenous uric acid, in situ intestinal closed loop method, oxonate-treated rats; assay type: in vivo, rat; conditions: 60 min, no inhibitor
Method: We evaluated intestinal secretion of endogenous uric acid according to the method described previously, with some modifications. Rats were anesthetized with 50% urethane and treated with oxonate by the same method as in the in vivo animal study described above. Intestinal closed loops were made at different segments: jejunum (10 cm), ileum (10 cm), and colon (3–5 cm). Phosphate-buffered solution (PB, 0.075 M NaH2PO4 - 0.075 M Na2HPO4, pH 6.5) or inhibitor-containing PB was injected into the intestinal loop. After 60 min, the remaining luminal content in each loop was washed out and collected for quantitation. Blood was obtained from the jugular vein at 1, 20, 40 and 60 min. Plasma was obtained by centrifugation and used for quantitation.
(§1) The following equation was used to calculate intestinal secretory clearance (µL/min/cm loop) and estimated total intestinal secretory clearance (CLintestine, estimated) (mL/min): [drawing 1] [drawing 2] [drawing 3] where A is the amount of uric acid secreted into the intestinal lumen of each loop for 60 min, L is the length of the intestine, and AUC is area under the plasma concentration-time curve.

[2] = Clearance of endogenous uric acid (urine, bile, estimated intestine) in oxonate-treated rats; assay type: in vivo, rat
Method: (§2) Male Wistar rats (280±30 g body weight) used in the present study were treated with potassium oxonate, a uric acid oxidase (uricase) inhibitor. Oxonate-treated rats were established as described previously, [48]. Briefly, rats were anesthetized with 50% urethane (2 mL/kg) and infused with 0.9% NaCl, 0.5% oxonate and 4% mannitol solution from the femoral vein at the flow rate of 3 mL/hr. As a bolus, 0.9% NaCl, 1.5% oxonate and 4% mannitol solution was administered from the jugular vein at 6 mL/kg. After equilibration for 80 min, blood, urine and bile samples were collected at 20-min intervals. When [^14C]uric acid (2 µCi/rat) was used, it was intravenously injected from the jugular vein after oxonate treatment for 80 min. In order to suppress the uricolysis of [^14C]uric acid by intestinal flora, animals received orally non-absorbed antibiotics, polymyxin B, kanamycin, and vancomycin at daily doses of 50, 50 and 20 mg/kg, respectively, for 7 days before this animal study. Urine and bile were collected at 20-min intervals, and blood samples were drawn at 1, 5, 10, 20, 40, 60, 80, 100 and 120 min. Urine and bile were collected from bladder and bile ducts, respectively, and blood from the jugular vein. In mice, urine was collected for 24 hours by using metabolic cages (Natsume, Tokyo, Japan).
as §1
Concentrations of uric acid in plasma, urine, bile, and intestinal content were analyzed by means of HPLC. Briefly, 80 µL 0.41% HClO4 was added to 40 µL of sample and mixed well. The sample was kept 4°C for 30 min. An aliquot was centrifuged at 15,000 rpm for 5 min at 4°C to separate denatured proteins. […] Uric acid was detected at 284 nm. […]

[3] = Plasma uric acid, intestinal and renal clearance in oxonate-treated wild-type and Bcrp1 knockout mice; assay type: in vivo; conditions: for Intestinal secretory clearance of endogenous uric acid / Renal clearance of endogenous uric acid: oxonate-treated; for Intestinal secretory clearance of endogenous uric acid: ileum closed loop; for Renal clearance of endogenous uric acid: metabolic cages
Method: as §2
Mice were treated with oxonate (intraperitoneal injection of 200 mg/kg oxonate in 1% arabic gum solution) at 1 hr before injection of PB solution into the intestinal loop. Blood was withdrawn from the jugular vein at 1, 30 and 60 min. At 60 min, the intestinal luminal content was collected for measurement of intestinally secreted uric acid.
as §1

[4] = target: T1, rBcrp (Rattus norvegicus, UniProt Q80W57); assay: [14C]uric acid uptake by rBcrp-expressing membrane vesicles; assay type: biochemical; design: purchased GenoMembrane Inc. (Yokohama, Japan); host or cells: Sf9 cells
T1 sequence (Q80W57 1-657): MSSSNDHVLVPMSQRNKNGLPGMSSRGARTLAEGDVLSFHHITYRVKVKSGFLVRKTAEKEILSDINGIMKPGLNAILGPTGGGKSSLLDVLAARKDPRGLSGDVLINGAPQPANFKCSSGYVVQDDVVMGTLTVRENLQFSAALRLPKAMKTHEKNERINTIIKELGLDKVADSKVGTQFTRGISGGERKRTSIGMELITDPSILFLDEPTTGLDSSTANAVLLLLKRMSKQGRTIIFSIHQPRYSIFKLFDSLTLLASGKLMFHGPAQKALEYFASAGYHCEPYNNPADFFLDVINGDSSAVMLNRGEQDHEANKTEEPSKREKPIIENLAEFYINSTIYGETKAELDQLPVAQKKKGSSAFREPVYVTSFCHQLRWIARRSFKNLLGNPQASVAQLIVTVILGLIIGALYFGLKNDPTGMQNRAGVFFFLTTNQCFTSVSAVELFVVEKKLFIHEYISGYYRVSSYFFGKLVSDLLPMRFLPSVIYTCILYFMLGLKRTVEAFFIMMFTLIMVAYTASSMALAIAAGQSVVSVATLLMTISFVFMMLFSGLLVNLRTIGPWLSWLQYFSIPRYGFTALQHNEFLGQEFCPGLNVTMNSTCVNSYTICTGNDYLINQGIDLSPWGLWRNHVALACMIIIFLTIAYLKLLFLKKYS
Method: hBCRP/rBcrp, hMRP2/rMrp2, or hMDR1-expressing membrane vesicles prepared from Sf9 cells were purchased from GenoMembrane Inc. (Yokohama, Japan). Uptake experiments were conducted as described previously. Briefly, after a pre-incubation for 5 min at 37°C, membrane vesicles (50 µg protein/50 µL final reaction volume) were incubated for 5 min at 37°C in the presence of 4 mM ATP or AMP in assay buffer (1 M KCl, 1 M MgCl2, and 100 mM MOPS-Tris, pH 7.0) containing [^14C]uric acid (1 µCi/mL). The uptake reaction was terminated by adding 1 mL ice-cold washing buffer (1 M KCl, and 100 mM MOPS-Tris, pH 7.0) to the membrane solution, and the mixture was rapidly filtered through a nitrocellulose filter (0.45 µm pore size, Millipore, Bedford, MA). The filters were washed twice with 5 mL ice-cold washing buffer. The filters were dried and dissolved in Clearsol-I for quantitation of radioactivity.

[5] = humans; cited from earlier work

Compound: O=c1[nH]c(=O)c2[nH]c(=O)[nH]c2[nH]1 [uric acid]
- Intestinal secretion clearance of endogenous uric acid ([1]; colon closed loop): 0.76±0.17 µL/min/cm loop
- Intestinal secretion clearance of endogenous uric acid ([1]; ileum closed loop): 1.58±0.13 µL/min/cm loop
- Intestinal secretion clearance of endogenous uric acid ([1]; jejunum closed loop): 0.49±0.03 µL/min/cm loop
- CLintestine, estimated (total intestinal secretory clearance) ([2]; from closed loop clearance and intestinal length): 0.15 mL/min
- CL renal ([2]; male, Wistar, rat, urine (relative to plasma AUC), up to 60 min, amount excreted / plasma AUC, read-out: CLrenal of endogenous uric acid): 0.5 ± 0.06 mL/min
- CLbile of endogenous uric acid ([2]; up to 60 min, amount excreted / plasma AUC): 0.02 mL/min and 0.02 ± 0.002 mL/min
- Intestinal secretory clearance of endogenous uric acid ([3]; Bcrp1−/− mice): 0.61 ± 0.08 µL/min/cm
- Renal clearance of endogenous uric acid ([3]; Bcrp1−/− mice): 16.0 ± 1.77 µL/min
- Plasma uric acid level in Bcrp1−/− mice compared with wild-type mice ([3]; after oxonate treatment): much higher
- Intestinal secretory clearance of endogenous uric acid ([3]; wild-type mice): 1.04 ± 0.11 µL/min/cm
- Renal clearance of endogenous uric acid ([3]; wild-type mice): 23.5 ± 1.42 µL/min
- Vmax of uric acid transport by rBcrp ([4]; ATP-dependent uptake, maximum uric acid concentration 5 mM): 67.3±4.21 nmol/5 min/mg protein
- Uptake of uric acid in the presence of ATP versus AMP ([4]; [14C]uric acid 20 µM, 5 min, 37°C, 4 mM ATP or AMP): significantly higher
- Biliary clearance of uric acid [5]: 0.1 to 0.3 mL/min
- Uric acid concentration in bile [5]: 1 to 2 mg/dL
- Urinary clearance of uric acid [5]: 5.8 to 6.3 mL/min
